Measured values taken from US10344060B2 (priority 2013, dated 2019).
Where “and” joins values, the source holds several entries; their conditions need not be identical. Identical values can stand only once. Like-named read-outs stand apart in the source and are kept apart here.

Tests used:
Test in all cases: cell-based
hNav1.6 = hNav1.6 (Homo sapiens, UniProt Q9UQD0); assay type: cell-based; details: for Nav1.6/Nav1.7 / IC50: Table 15; for Nav1.6/Nav1.7: ratio of PX tonic IC50 values; for IC50: read-out: PX hNav1.6 Tonic IC50
Sequence of hNav1.6 (Q9UQD0 whole entry): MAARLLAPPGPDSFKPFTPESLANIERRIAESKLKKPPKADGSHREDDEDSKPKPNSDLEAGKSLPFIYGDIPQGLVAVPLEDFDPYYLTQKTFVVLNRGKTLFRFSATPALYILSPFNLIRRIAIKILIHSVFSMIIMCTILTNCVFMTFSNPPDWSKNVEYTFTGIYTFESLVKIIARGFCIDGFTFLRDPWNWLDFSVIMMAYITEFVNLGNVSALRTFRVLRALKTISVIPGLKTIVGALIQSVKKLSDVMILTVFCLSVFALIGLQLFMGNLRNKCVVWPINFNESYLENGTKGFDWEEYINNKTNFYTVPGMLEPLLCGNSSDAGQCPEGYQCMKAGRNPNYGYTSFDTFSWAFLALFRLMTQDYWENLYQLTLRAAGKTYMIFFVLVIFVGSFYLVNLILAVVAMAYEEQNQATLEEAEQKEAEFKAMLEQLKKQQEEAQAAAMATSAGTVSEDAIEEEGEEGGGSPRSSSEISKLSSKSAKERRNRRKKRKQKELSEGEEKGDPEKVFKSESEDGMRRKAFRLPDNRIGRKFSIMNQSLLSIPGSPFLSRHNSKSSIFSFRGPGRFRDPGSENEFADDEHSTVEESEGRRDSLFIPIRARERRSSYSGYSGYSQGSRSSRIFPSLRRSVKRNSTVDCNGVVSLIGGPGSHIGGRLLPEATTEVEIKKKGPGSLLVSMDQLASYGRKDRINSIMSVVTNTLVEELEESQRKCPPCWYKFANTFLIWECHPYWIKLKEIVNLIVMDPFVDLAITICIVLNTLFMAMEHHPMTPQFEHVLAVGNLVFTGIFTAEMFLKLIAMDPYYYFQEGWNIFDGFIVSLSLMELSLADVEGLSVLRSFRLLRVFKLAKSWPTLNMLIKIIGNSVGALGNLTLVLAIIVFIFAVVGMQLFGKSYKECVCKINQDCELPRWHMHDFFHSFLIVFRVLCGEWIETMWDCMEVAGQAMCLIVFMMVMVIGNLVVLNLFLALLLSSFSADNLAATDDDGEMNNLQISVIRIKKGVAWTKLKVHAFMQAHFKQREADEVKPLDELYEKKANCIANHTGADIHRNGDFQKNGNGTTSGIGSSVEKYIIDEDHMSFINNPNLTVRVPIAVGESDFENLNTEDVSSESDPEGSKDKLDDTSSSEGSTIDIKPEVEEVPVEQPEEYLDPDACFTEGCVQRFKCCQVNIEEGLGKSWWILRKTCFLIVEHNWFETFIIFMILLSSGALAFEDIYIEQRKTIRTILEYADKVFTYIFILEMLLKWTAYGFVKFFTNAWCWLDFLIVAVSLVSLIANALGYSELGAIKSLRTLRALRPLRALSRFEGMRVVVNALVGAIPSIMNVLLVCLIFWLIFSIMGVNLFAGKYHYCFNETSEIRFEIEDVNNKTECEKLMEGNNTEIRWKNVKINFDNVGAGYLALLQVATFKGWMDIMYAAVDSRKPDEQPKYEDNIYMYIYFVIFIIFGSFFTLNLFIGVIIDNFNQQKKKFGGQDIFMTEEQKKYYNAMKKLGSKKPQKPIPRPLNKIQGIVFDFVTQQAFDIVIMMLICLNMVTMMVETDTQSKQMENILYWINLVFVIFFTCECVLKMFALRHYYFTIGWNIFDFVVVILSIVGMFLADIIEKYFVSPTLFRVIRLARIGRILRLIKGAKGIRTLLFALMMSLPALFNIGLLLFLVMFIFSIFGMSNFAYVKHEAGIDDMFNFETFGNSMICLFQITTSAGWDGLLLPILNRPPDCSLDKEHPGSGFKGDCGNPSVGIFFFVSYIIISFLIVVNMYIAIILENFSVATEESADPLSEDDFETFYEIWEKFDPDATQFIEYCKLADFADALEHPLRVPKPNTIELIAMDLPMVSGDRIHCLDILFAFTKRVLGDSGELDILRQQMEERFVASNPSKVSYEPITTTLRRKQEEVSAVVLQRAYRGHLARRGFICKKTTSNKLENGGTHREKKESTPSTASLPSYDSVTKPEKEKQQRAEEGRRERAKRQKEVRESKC

hNav1.7 [1] = biological target: T1, hNav1.7 (Homo sapiens, UniProt Q15858); assay type: cell-based; details: for IC50: PatchXpress, read-out: PX hNav1.7 Tonic IC50; for Nav1.4/Nav1.7 / Nav1.5/Nav1.7: ratio of PX tonic IC50 values
T1 sequence (Q15858 whole entry): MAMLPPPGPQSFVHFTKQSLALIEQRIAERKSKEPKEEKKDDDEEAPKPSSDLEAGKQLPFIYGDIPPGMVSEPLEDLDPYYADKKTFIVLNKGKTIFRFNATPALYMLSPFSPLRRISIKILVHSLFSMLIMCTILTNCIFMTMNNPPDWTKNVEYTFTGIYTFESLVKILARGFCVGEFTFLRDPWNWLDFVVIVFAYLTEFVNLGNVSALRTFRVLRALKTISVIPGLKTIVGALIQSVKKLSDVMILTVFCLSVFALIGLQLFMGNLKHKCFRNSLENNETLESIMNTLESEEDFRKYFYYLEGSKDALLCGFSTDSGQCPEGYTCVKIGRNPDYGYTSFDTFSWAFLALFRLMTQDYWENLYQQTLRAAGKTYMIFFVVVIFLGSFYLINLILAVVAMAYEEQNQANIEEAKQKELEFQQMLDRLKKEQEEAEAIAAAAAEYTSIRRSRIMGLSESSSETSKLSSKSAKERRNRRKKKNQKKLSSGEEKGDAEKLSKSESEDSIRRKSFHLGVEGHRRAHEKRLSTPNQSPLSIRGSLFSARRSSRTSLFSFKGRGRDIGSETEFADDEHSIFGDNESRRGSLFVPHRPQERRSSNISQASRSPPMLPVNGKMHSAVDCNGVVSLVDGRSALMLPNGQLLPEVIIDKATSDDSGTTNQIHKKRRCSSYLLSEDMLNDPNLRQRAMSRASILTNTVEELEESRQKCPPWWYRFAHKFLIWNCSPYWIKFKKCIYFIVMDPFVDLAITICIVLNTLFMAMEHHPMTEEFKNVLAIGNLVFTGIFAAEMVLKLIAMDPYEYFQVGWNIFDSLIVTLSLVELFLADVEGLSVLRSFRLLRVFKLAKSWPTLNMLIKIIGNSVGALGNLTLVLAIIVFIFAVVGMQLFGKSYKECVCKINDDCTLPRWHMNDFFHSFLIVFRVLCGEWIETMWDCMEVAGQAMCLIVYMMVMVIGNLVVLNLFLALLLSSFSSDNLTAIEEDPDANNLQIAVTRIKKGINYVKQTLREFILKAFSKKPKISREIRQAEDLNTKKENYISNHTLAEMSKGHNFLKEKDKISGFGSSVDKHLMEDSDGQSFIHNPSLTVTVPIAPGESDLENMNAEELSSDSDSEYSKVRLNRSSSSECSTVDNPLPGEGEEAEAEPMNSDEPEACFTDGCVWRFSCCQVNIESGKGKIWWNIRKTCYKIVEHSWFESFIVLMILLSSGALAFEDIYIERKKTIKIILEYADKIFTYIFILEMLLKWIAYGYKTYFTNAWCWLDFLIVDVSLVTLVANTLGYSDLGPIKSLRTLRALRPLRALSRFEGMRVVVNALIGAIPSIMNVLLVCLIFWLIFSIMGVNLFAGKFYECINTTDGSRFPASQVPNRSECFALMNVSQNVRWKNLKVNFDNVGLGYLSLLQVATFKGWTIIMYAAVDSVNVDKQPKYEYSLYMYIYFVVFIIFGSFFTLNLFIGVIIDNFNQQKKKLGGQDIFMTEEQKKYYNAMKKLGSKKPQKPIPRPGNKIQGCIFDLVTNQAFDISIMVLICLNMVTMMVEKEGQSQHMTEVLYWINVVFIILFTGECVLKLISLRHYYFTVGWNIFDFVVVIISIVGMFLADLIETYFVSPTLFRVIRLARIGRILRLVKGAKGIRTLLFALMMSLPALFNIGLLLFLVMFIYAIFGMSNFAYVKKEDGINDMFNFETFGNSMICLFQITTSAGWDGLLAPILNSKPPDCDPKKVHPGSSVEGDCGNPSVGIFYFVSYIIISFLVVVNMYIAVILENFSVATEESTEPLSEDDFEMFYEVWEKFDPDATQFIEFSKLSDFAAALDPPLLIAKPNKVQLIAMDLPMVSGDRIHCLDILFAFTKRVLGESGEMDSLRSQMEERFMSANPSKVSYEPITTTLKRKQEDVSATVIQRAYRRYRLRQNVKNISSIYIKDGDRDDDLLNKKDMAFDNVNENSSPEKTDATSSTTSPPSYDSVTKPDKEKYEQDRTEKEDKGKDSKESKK

hNav1.4 = hNav1.4 (Homo sapiens, UniProt P35499); assay type: cell-based; details: Table 12; ratio of PX tonic IC50 values
hNav1.7 [2] = biological target: T1, hNav1.7; details: ratio of IonWorks Quattro IC50 values

SMILES | Nav1.6/Nav1.7 (hNav1.6) | Nav1.4/Nav1.7 (hNav1.7 [2]; Nav1.4 over Nav1.7) | Nav1.4/Nav1.7 (hNav1.7 [1]; Table 11) | Nav1.5/Nav1.7 (hNav1.7 [1]; Table 11) | other results
C#CC[C@H](N)C(=O)N[C@@H](Cc1ccc(O)cc1)C(=O)N[C@H]1CSSC[C@@H]2NC(=O)[C@@H]3CSSC[C@@H](C(=O)N[C@@H](CCCNC(=N)N)C(=O)N[C@@H](CCCCN)C(=O)N[C@@H](CCC(=O)O)C(=O)N[C@H](C(N)=O)[C@@H](C)CC)NC(=O)[C@H](Cc4c[nH]c5ccccc45)NC(=O)[C@H](CC(C)C)NC(=O)[C@H](CCCCN)NC(=O)[C@H](CSSC[C@H](NC(=O)[C@H]([C@@H](C)O)NC(=O)[C@H](Cc4c[nH]c5ccccc45)NC(=O)[C@H](CCCC)NC(=O)[C@H](Cc4c[nH]c5ccccc45)NC(=O)[C@H](CCCCN)NC(=O)[C@H](CCC(N)=O)NC1=O)C(=O)N[C@@H](CC(=O)O)C(=O)N[C@@H](CO)C(=O)N[C@@H](CCCCN)C(=O)N[C@@H](CCCNC(=N)N)C(=O)N[C@@H](C)C(=O)N3)NC(=O)[C@H](C)NC(=O)[C@H](CC(C)C)NC(=O)CNC(=O)[C@H](CCC(=O)O)NC2=O [compound 727] | >11 |  |  |  | IC50 (hNav1.6): > 10000 nM; IC50 (hNav1.7 [1]; Table 12, tonic block): 905 nM
CC[C@H](C)[C@H](NC(=O)[C@@H](NC(=O)[C@H](CCCCN)NC(=O)[C@H](CCCNC(=N)N)NC(=O)[C@@H]1CSSC[C@@H]2NC(=O)[C@H](C)NC(=O)[C@H](CCCNC(=N)N)NC(=O)[C@H](CCCCN)NC(=O)[C@H](CO)NC(=O)[C@H](CC(=O)O)NC(=O)[C@@H]3CSSC[C@H](NC(=O)[C@H](CCCNC(=N)N)NC(=O)[C@H](CC(C)C)NC(=O)CNC(=O)[C@H](CCC(=O)O)NC(=O)[C@H](CSSC[C@H](NC(=O)[C@@H](N)Cc4ccc(O)cc4)C(=O)N[C@@H](CCC(N)=O)C(=O)N[C@@H](CCC(=O)O)C(=O)N[C@@H](Cc4c[nH]c5ccccc45)C(=O)N[C@@H](CCSC)C(=O)N[C@@H](Cc4c[nH]c5ccccc45)C(=O)N[C@@H]([C@@H](C)O)C(=O)N3)NC2=O)C(=O)N[C@@H](CCCCN)C(=O)N[C@@H](CC(C)C)C(=O)N[C@@H](Cc2c[nH]c3ccccc23)C(=O)N1)[C@@H](C)CC)C(N)=O [compound 51] | >12 |  |  |  | IC50 (hNav1.6): > 10000 nM; IC50 (hNav1.7 [1]; tonic, Table 11): 847 nM
CC[C@H](C)[C@H](NC(=O)[C@H](CCC(=O)O)NC(=O)[C@H](CCCCN)NC(=O)[C@H](CCCNC(=N)N)NC(=O)[C@@H]1CSSC[C@@H]2NC(=O)[C@H](C)NC(=O)[C@H](CCCNC(=N)N)NC(=O)[C@H](CCCCN)NC(=O)[C@H](CO)NC(=O)[C@H](CC(=O)O)NC(=O)[C@@H]3CSSC[C@H](NC(=O)[C@H](CCCNC(=N)N)NC(=O)[C@H](CC(C)C)NC(=O)CNC(=O)[C@H](CCC(=O)O)NC(=O)[C@H](CSSC[C@H](NC(=O)[C@@H](N)Cc4ccc(O)cc4)C(=O)N[C@@H](CCC(N)=O)C(=O)N[C@@H](CCCCN)C(=O)N[C@@H](Cc4c[nH]c5ccccc45)C(=O)N[C@@H](CCSC)C(=O)N[C@@H](Cc4c[nH]c5ccccc45)C(=O)N[C@@H]([C@@H](C)O)C(=O)N3)NC2=O)C(=O)N[C@@H](CCCCN)C(=O)N[C@@H](CC(C)C)C(=O)N[C@@H](Cc2c[nH]c3ccccc23)C(=O)N1)C(N)=O [SEQ ID NO: 69, [Glu28]JzTx-V(1-29)] |  |  |  |  | selectivity for Nav1.7 over Nav1.6 (hNav1.6; PatchXpress): 437 fold
C#CC[C@H](N)C(=O)N[C@@H](Cc1ccc(O)cc1)C(=O)N[C@H]1CSSC[C@@H]2NC(=O)[C@@H]3CSSC[C@@H](C(=O)N[C@@H](CCCNC(=N)N)C(=O)N[C@@H](CCCCN)C(=O)N[C@@H](CCC(=O)O)C(=O)N[C@H](C(N)=O)[C@@H](C)CC)NC(=O)[C@H](Cc4c[nH]c5ccccc45)NC(=O)[C@H](CC(C)C)NC(=O)[C@H](CCC(=O)O)NC(=O)[C@H](CSSC[C@H](NC(=O)[C@H]([C@@H](C)O)NC(=O)[C@H](Cc4c[nH]c5ccccc45)NC(=O)[C@H](CCCC)NC(=O)[C@H](Cc4c[nH]c5ccccc45)NC(=O)[C@H](CCCCN)NC(=O)[C@H](CCC(N)=O)NC1=O)C(=O)N[C@@H](CC(=O)O)C(=O)N[C@@H](CO)C(=O)N[C@@H](CCCCN)C(=O)N[C@@H](CCCNC(=N)N)C(=O)N[C@@H](C)C(=O)N3)NC(=O)[C@H](CCCNC(=N)N)NC(=O)[C@H](CC(C)C)NC(=O)CNC(=O)[C@H](CCC(=O)O)NC2=O [compound 722] | >442 |  |  |  | Nav1.4/Nav1.7 (hNav1.4): >442
CC[C@H](C)[C@H](NC(=O)[C@@H](NC(=O)[C@H](CCCCN)NC(=O)[C@H](CCCNC(=N)N)NC(=O)[C@@H]1CSSC[C@@H]2NC(=O)[C@H](C)NC(=O)[C@H](CCCNC(=N)N)NC(=O)[C@H](CCCCN)NC(=O)[C@H](CO)NC(=O)[C@H](CC(=O)O)NC(=O)[C@@H]3CSSC[C@H](NC(=O)[C@H](Cc4ccc(O)cc4)NC(=O)[C@H](CC(C)C)NC(=O)CNC(=O)[C@H](CCC(=O)O)NC(=O)[C@H](CSSC[C@H](NC(=O)[C@@H](N)Cc4ccc(O)cc4)C(=O)N[C@@H](CCC(N)=O)C(=O)N[C@@H](CCCCN)C(=O)N[C@@H](Cc4c[nH]c5ccccc45)C(=O)N[C@@H](CCSC)C(=O)N[C@@H](Cc4c[nH]c5ccccc45)C(=O)N[C@@H]([C@@H](C)O)C(=O)N3)NC2=O)C(=O)N[C@@H](CCCCN)C(=O)N[C@@H](CC(C)C)C(=O)N[C@@H](Cc2c[nH]c3ccccc23)C(=O)N1)[C@@H](C)CC)C(N)=O [compound 124] |  | 43 | 266 | >1695 | 
CC[C@H](C)[C@H](NC(=O)[C@@H](NC(=O)[C@H](CCCCN)NC(=O)[C@H](CCCNC(=N)N)NC(=O)[C@@H]1CSSC[C@@H]2NC(=O)[C@H](C)NC(=O)[C@H](CCCNC(=N)N)NC(=O)[C@H](CCCCN)NC(=O)[C@H](CO)NC(=O)[C@H](CC(=O)O)NC(=O)[C@@H]3CSSC[C@H](NC(=O)[C@H](CCC(=O)O)NC(=O)[C@H](CC(C)C)NC(=O)CNC(=O)[C@H](CCC(=O)O)NC(=O)[C@H](CSSC[C@H](NC(=O)[C@@H](N)Cc4ccc(O)cc4)C(=O)N[C@@H](CCC(N)=O)C(=O)N[C@@H](CCCCN)C(=O)N[C@@H](Cc4c[nH]c5ccccc45)C(=O)N[C@@H](CCSC)C(=O)N[C@@H](Cc4c[nH]c5ccccc45)C(=O)N[C@@H]([C@@H](C)O)C(=O)N3)NC2=O)C(=O)N[C@@H](CCCCN)C(=O)N[C@@H](CC(C)C)C(=O)N[C@@H](Cc2c[nH]c3ccccc23)C(=O)N1)C(C)C)C(N)=O [compound 133] |  | 51 | 320 | 1341 | 
CC[C@H](C)[C@H](NC(=O)[C@@H](NC(=O)[C@H](CCCCN)NC(=O)[C@H](CCCNC(=N)N)NC(=O)[C@@H]1CSSC[C@@H]2NC(=O)[C@H](C)NC(=O)[C@H](CCCNC(=N)N)NC(=O)[C@H](CCCCN)NC(=O)[C@H](CO)NC(=O)[C@H](CC(=O)O)NC(=O)[C@@H]3CSSC[C@H](NC(=O)CNC(=O)[C@H](CC(C)C)NC(=O)CNC(=O)[C@H](CCC(=O)O)NC(=O)[C@H](CSSC[C@H](NC(=O)[C@@H](N)Cc4ccc(O)cc4)C(=O)N[C@@H](CCC(N)=O)C(=O)N[C@@H](CCCCN)C(=O)N[C@@H](Cc4c[nH]c5ccccc45)C(=O)N[C@@H](CCSC)C(=O)N[C@@H](Cc4c[nH]c5ccccc45)C(=O)N[C@@H]([C@@H](C)O)C(=O)N3)NC2=O)C(=O)N[C@@H](CCCCN)C(=O)N[C@@H](CC(C)C)C(=O)N[C@@H](Cc2c[nH]c3ccccc23)C(=O)N1)[C@@H](C)CC)C(N)=O [compound 121] |  | 29 | 25 | 1808 | 
CC[C@H](C)[C@H](NC(=O)[C@H](Cc1ccc(O)cc1)NC(=O)[C@H](CCCCN)NC(=O)[C@H](CCCNC(=N)N)NC(=O)[C@@H]1CSSC[C@@H]2NC(=O)[C@H](C)NC(=O)[C@H](CCCNC(=N)N)NC(=O)[C@H](CCCCN)NC(=O)[C@H](CO)NC(=O)[C@H](CC(=O)O)NC(=O)[C@@H]3CSSC[C@H](NC(=O)[C@H](CCC(=O)O)NC(=O)[C@H](CC(C)C)NC(=O)CNC(=O)[C@H](CCC(=O)O)NC(=O)[C@H](CSSC[C@H](NC(=O)[C@@H](N)Cc4ccc(O)cc4)C(=O)N[C@@H](CCC(N)=O)C(=O)N[C@@H](CCCCN)C(=O)N[C@@H](Cc4ccc(I)cc4)C(=O)N[C@@H](CCSC)C(=O)N[C@@H](Cc4c[nH]c5ccccc45)C(=O)N[C@@H]([C@@H](C)O)C(=O)N3)NC2=O)C(=O)N[C@@H](CCCCN)C(=O)N[C@@H](CC(C)C)C(=O)N[C@@H](Cc2c[nH]c3ccccc23)C(=O)N1)C(N)=O [compound 192] |  |  | 78 | >455 | Nav1.4/Nav1.7 (hNav1.7 [2]; Table 8): 30
CCC[C@H](NC(=O)[C@H](CCCCN)NC(=O)[C@H](CCCNC(=N)N)NC(=O)[C@@H]1CSSC[C@@H]2NC(=O)[C@H](C)NC(=O)[C@H](CCCNC(=N)N)NC(=O)[C@H](CCCCN)NC(=O)[C@H](CO)NC(=O)[C@H](CC(=O)O)NC(=O)[C@@H]3CSSC[C@H](NC(=O)[C@H](CCC(=O)O)NC(=O)[C@H](CC(C)C)NC(=O)CNC(=O)[C@H](CCC(=O)O)NC(=O)[C@H](CSSC[C@H](NC(=O)[C@@H](N)Cc4ccc(O)cc4)C(=O)N[C@@H](CCC(N)=O)C(=O)N[C@@H](CCCCN)C(=O)N[C@@H](Cc4c[nH]c5ccccc45)C(=O)N[C@@H](CCSC)C(=O)N[C@@H](Cc4c[nH]c5ccccc45)C(=O)N[C@@H]([C@@H](C)O)C(=O)N3)NC2=O)C(=O)N[C@@H](CCCCN)C(=O)N[C@@H](CC(C)C)C(=O)N[C@@H](Cc2c[nH]c3ccccc23)C(=O)N1)C(=O)N[C@H](C(N)=O)[C@@H](C)CC [compound 136] |  | 66 and 34 | 405 | 611 | 
